Source: PMC6071250 (2018)

Columns and labels:
[1] = test system: anti-AFT B1 aptamer (DNA, aptamer) GTTGGGCACGTGTTGTCTCTCTGTGTCTCGTGCCCTTCGCTAGGCCCACA; experiment: TIRE/LSPR spectral shift; conditions: 3 mM MgCl2, Na+ and K+ (HBB: 120 mM NaCl, 5 mM KCl; PBB: 137 mM NaCl, 2.7 mM KCl); HBB or PBB pH 7.4; stated not to bind; concentration tested not stated; immobilised aptamer
[2] = test system: anti-AFT M1 aptamer (DNA, aptamer) ACTGCTAGAGATTTTCCACAT; experiment: TIRE/LSPR spectral shift; conditions: 3 mM MgCl2, Na+ and K+ (HBB: 120 mM NaCl, 5 mM KCl; PBB: 137 mM NaCl, 2.7 mM KCl); HBB or PBB pH 7.4; stated not to bind; concentration tested not stated; immobilised aptamer

- binding [1]: no
- binding [2]: no
SMILES: C[C@@H]1Cc2c(Cl)cc(C(=O)N[C@@H](Cc3ccccc3)C(=O)O)c(O)c2C(=O)O1
